The numbers were not newly measured in patent US8013163B2 (Astex Therapeutics Limited, priority 2005, dated 2011), which cites them from elsewhere.

The data set relates to malignant cells from B-cell chronic lymphocytic leukemia (B-CLL). Particulars: in vitro; cited from earlier work.

Regarding `CN1CC[C@H](c2c(O)cc(O)c3c(=O)cc(-c4ccccc4Cl)oc23)[C@H](O)C1` [Flavopiridol], the induction of apoptosis entry is recorded as “induce in vitro apoptosis”. On to `CC[C@H](CO)Nc1nc(NCc2ccccc2)c2ncn(C(C)C)c2n1` [CYC 202], for which the induction of apoptosis result was “induce in vitro apoptosis”.
